Data taken from a melting point compilation (Tetko et al.; mined from patent text by program, amines drawn as free bases though some values may be those of a salt).
Residues, ends and D or L forms follow the SMILES beside them. *: point of attachment. Tos = Cc1ccc(S(=O)(=O)*)cc1

Row | Structure (SMILES) | melting point [°C]
1 | OC1CCCCC1n1cnc2cc(Cl)c(Cl)cc21 (centres undefined) | 236 to 238
2 | N#Cc1ccc(NC2CCN(Cc3cc(F)c(F)c(F)c3)CC2)nn1 | 185
3 | N#Cc1cccc(-c2ccccc2)n1 | 65.2 to 66.1
4 | O=C(Oc1ccccc1)c1ccc(Oc2ccc([N+](=O)[O-])cc2)cc1O | 118 to 120
5 | Cc1cc(-c2csc(-c3cccc(C(=O)O)c3)n2)c(C)o1 | 174 to 175
6 | Cc1ccc(C(=O)O)c(NS(C)(=O)=O)c1 | 202 to 205
7 | O=[N+]([O-])c1cccc(-n2cnnc2C(F)(F)F)c1 | 142
8 | CCOCc1nc2c(N)nc3ccccc3c2n1CCCCS(=O)(=O)NC | 170 to 172
9 | COc1cc2cc(CO)c(CO)c(-c3cccc(-n4c(=O)ccc5ccccc54)n3)c2cc1OC | 142 to 143
10 | O=C(Nc1ccccc1)C1=C(N2CCOCC2)COC1=O | 205 to 206
11 | CCOC(=O)N[C@@H]1Cc2ccccc2[C@H]1Cl (relative stereo) | 82 to 84
12 | CC(=O)N[C@@H](Cc1cn(Cc2ccccc2)cn1)C(=O)OCc1ccccc1 | 113 to 114
13 | Cc1ccc(S(=O)(=O)NCC(=O)N[C@@H](Cc2ccccc2)C(=O)O)cc1 (Tos-Gly-Phe-OH) | 157 to 161
14 | Cc1nc(N2C(=O)N(Cc3ccc(F)cc3)CC2O)sc1C(=O)NCc1ccccc1 (centres undefined) | 133 to 134
15 | Brc1ccc(-c2ccc3nncn3n2)cc1 | 209 to 211
16 | O=C(CCCN1CCCC(c2cccc(O)c2)C1)c1ccc(F)cc1 (centres undefined) | 77 to 78
17 | CCCCNC(=O)N1CC(Oc2cccc(C(F)(F)F)c2)C1 | 108 to 109
18 | O=C(NCc1ccccn1)c1ccc(N2CCN(C(=O)c3ccccc3C(F)(F)F)CC2)nn1 | 179 to 181
19 | OCCCc1ccccc1OCc1ccccc1 | 45 to 48
20 | C=C(C(=O)OCC)N1C(C)(C)CC(OC(=O)C=CC(=O)OC2CC(C)(C)N(C(=C)C(=O)OCC)C(C)(C)C2)CC1(C)C | 185 to 186
21 | Nc1ncnc2c1nnn2[C@@H]1C[C@H](CO)[C@@H](O)[C@@H]1F | 214 to 216
22 | COc1cc(C(=O)c2c(N)sc3c2CCN(C(=O)c2ccccc2)C3)ccc1OC(C)C | 158 to 160
23 | COc1cc2c(c(OC)c1/C=C/c1ccc(C(N)=O)cc1)C(C)(C)CCC2(C)C | 190 to 194
24 | Cc1sc(-c2ccccc2)nc1COc1ccc(CCCC2OCCO2)cc1 | 80 to 81
25 | Cc1nc2ccccn2c1-c1csc(Nc2ccc(C(=O)NO)cc2)n1 | 188

Row | Structure (SMILES) | melting point [°C]
26 | Cc1nn(CCBr)c(=O)c2ccccc12 | 102 to 103
27 | CC(=O)N1CCC(C(=O)c2ccc(N3CCCCC3)cc2)CC1 | 122 to 125
28 | CC(C)(C)OC(=O)Nc1cc(N2CCOC2=O)c(-c2ccc(F)cc2)cc1N | 210
29 | Cc1cc(C)cc(C(=O)N2CCN(C(=O)CNC3CN4CC3CC4Cc3ccccc3)C(c3ccc(Cl)c(Cl)c3)C2)c1 (centres undefined) | 69 to 71
30 | CN(C)C(=O)CCc1c(-c2ccccc2)n(C)c(=O)c2ccccc12 | 166
31 | CCCC(=O)c1cnc2c(OC)cc(O)cc2c1Nc1ccc(O)cc1C | 251 to 253
32 | CC(O)(C(=O)O)c1ccc2c(c1)Cc1ccccc1-2 (centres undefined) | 164 to 168
33 | CC(C)(CO)NS(=O)(=O)c1cnc(NC(=O)c2cnn3c(C(F)F)cc(-c4ccc(C(F)(F)F)cc4)nc23)s1 | 280
34 | N#Cc1nn(-c2c(Cl)cc(C(F)(F)F)cc2Cl)c(N)c1-c1ccc2c(c1)OCO2 | 222
35 | Cc1nc2c3c(c(C(=O)NCC(C)O)cc2n1C)CCC1(Cc2ccccc2C1)N3 (centres undefined) | 224 to 225
36 | O=C(O)c1ccc(OCCNC(=O)C2Cc3ccccc3N2S(=O)(=O)c2ccc(-c3ccc(F)cc3)cc2)cc1 (centres undefined) | 108
37 | COc1ncncc1NS(=O)(=O)c1cccc(Cl)c1Cl | 204 to 211
38 | CCN(CC)c1nc(C)nc(SC)c1NC(=O)CBr | 173 to 174
39 | CC1(C)CCC(C)(C)c2cc(C#Cc3ccc(C(=O)O)cc3)ccc21 | 252 to 256
40 | CSc1ccc(N2CCCN(/C(C)=C(/C#N)C(=S)/N=C/N(C)C)CC2)cc1 | 133 to 136
41 | COc1cc(C=CC(=O)Nc2cnc3c(C)cc(C)cc3c2-c2ccccc2Cl)cc(OC)c1OC(C)=O | 152 to 154
42 | Cc1cnc(CCCC#N)c(O)c1 | 132
43 | COc1ccc(C(=O)Nc2ccccc2)cc1NC(=S)Nc1ccccc1 | 174 to 176
44 | O=C(NC1CC1)c1cn2c(NCCCCCCNS(=O)(=O)c3ccccc3[N+](=O)[O-])nsc2n1 | 170 to 171
45 | COc1ccccc1NC(=O)Nc1nc(Nc2ccccc2-c2ccccc2)nc(N(CCC(=O)O)Cc2cccc3ccccc23)n1 | 218 to 221
46 | CCCCCCCCCCCCc1ccc(CCC(N)(CO)CCO)cc1 (centres undefined) | 75 to 77
47 | CC(C(=O)O)c1ccc2cc(OCc3ccc4ccccc4c3)ccc2c1 (centres undefined) | 216 to 218
48 | O=C(O)COc1ccc(SCc2ccc(OCc3ccc(Cl)cc3Cl)cc2)c2c1CCC2 | 149 to 150
49 | CCOC(=O)c1cc2c(nc1C(=O)OCC)OCC2O (centres undefined) | 73 to 77
50 | C#CCOc1cc(OCC=C)ccc1-c1nc2cnccc2[nH]1 | 195

Row | Structure (SMILES) | melting point [°C]
51 | N#Cc1cnc2cc(Br)ccc2c1Nc1ccc(Cc2ccccc2)cc1 | 195 to 197
52 | BrC1=C(Br)C(Br)(Br)C(Br)=C1Br | 87 to 88
53 | Nc1c([N+](=O)[O-])cnn1-c1c(Cl)cc(C(F)(F)F)c(Cl)c1Cl | 78 to 85
54 | CCc1noc(-c2cn(-c3nccnn3)cn2)n1 | 181 to 182
55 | COc1ncnc(OC)c1NC(=O)CCl | 193 to 195
56 | N=C(N)N1CCN(C23CC4CC(CC(C4)C2)C3)CC1 | 182 to 186
57 | O=C(Nc1ccccc1C(=O)O)C(=Cc1ccccc1)C(=O)Nc1ccccc1C(=O)O | 247 to 249
58 | CC(C)Cn1c(CNC(=O)OC(C)(C)C)c(-c2cccs2)c2cc(O)ccc2c1=O | 216 to 217
59 | C=CCn1c(-c2cccnc2)nn(CCCCN2CCN(c3ccccc3OC)CC2)c1=O | 71 to 75
60 | Cn1ncc(/C=C/C(=O)Nc2ccc(Cc3nccs3)cc2)c1-c1ccc(F)cc1 | 209 to 210
61 | CNC(=C[N+](=O)[O-])N1CC1 | 118 to 119
62 | COC(=O)C1CN(C(=O)c2ccc(OC(F)(F)F)cc2)c2cc(Cl)ccc2CN1S(=O)(=O)c1ccc(OC)cc1 (centres undefined) | 149 to 151
63 | COCOc1cc(-n2c(OC)nc(C(F)(F)F)cc2=O)c(F)cc1Cl | 97 to 98
64 | COc1ccc2cc(OCc3ccccc3)c(C(=O)OCc3ccccc3)cc2c1 | 96 to 98
65 | CCOC(=O)/C=C/c1cnn(C)c1C | 82 to 83
66 | CC(C)(c1ccccc1)c1cccc(S(=O)(=O)NC(CCCNC(=N)N)C(=O)O)c1 (centres undefined) | 122 to 124
67 | Clc1cc2nc(NC3=NCCN3)[nH]c2c(Cl)c1Cl | 324 to 326
68 | O=C(O)C1CCCc2[nH]c3ccccc3c21 (centres undefined) | 163 to 165
69 | Cc1cc2ccccc2c(-c2ccccc2I)n1 | 111 to 112
70 | COc1ccc2oc(S(=O)(=O)c3ccc(=O)[nH]n3)cc2c1 | 222 to 223
71 | CC(C)N1C(N)=NS(=O)(=O)NC1Oc1ccc([N+](=O)[O-])cc1 (centres undefined) | 132 to 136
72 | CCCc1ccc(-c2ncc(C#N)c(Cl)n2)cc1 | 109 to 110
73 | CCCN(CCC)NNc1nc(C(=O)c2ccccc2O)nc(C(=O)c2ccccc2O)n1 | 254 to 255
74 | COC(=O)c1c(OC)cc(OC)nc1C(F)(F)F | 85 to 87.5
75 | CC(C)C(=O)NC(c1ccc(C=NO)cc1)C(F)(F)F (centres undefined) | 169 to 171

Row | Structure (SMILES) | melting point [°C]
76 | COc1cc([C@H]2CC[C@H](c3cc(OC)c(OC)c(OC)c3)S2)cc(OC)c1OC (relative stereo) | 133 to 134
77 | CCC(OCC(F)(F)F)c1ccc(Cl)c2nc3n(c12)CCCN3c1ccc(N(C)C)nc1C (centres undefined) | 144 to 146
78 | CCCCCCCCCCCCc1c2c(=O)c3cc(-c4cccs4)ccc3c2c(CCCCCCCCCCCC)c2c(=O)c3cc(-c4cccs4)ccc3c12 | 205 to 206
79 | CCOC(=O)C(Cc1cnc2ccc(OC)cc2c1)NC(=O)OC(C)(C)C (centres undefined) | 127
80 | CN(C)C(=O)N[C@H]1CC[C@H](CCN2CCN(c3nccc4c3CCO4)CC2)CC1 | 260
81 | Cc1ncc2n1-c1ccc(Cl)cc1C(c1ccccc1F)=NC2O (centres undefined) | 185 to 186
82 | Nc1ccc2[nH]cc(C3=CCN4CCCC4C3)c2c1 (centres undefined) | 208 to 210
83 | ON=Cc1cc2c(cn1)[nH]c1ccccc12 | 157 to 159
84 | COc1ccc2c(c1OC)CC[C@H]2NC(C)=O | 175
85 | O=C(CNc1ccccc1)Nc1ccc(Cl)c(Cl)c1 | 110 to 112
86 | c1ccc2c(c1)cc1n2CC2(CC1)CO2 (centres undefined) | 104 to 107
87 | N#CCCN(Cc1ccccc1)CC(O)CO (centres undefined) | 132
88 | C=CC(=O)Nc1ccc2c(Nc3cccc(Cl)c3)ncnc2c1 | 296 to 298
89 | O=C(NCC(c1ccccc1)c1ccccc1)N1CCC(C(=O)O)(c2ccccc2)CC1 | 173 to 174
90 | O[C@H](CCc1cccnc1)COc1ccc(Br)cc1 | 65 to 66
91 | CC(=O)C(O)C1OC(n2cc(F)c(=O)[nH]c2=O)CC1(O)C(C)=O (centres undefined) | 148 to 149
92 | O=C(CN1C(=O)c2ccccc2S1(=O)=O)OC1CCCCC1 | 83
93 | CC(=O)Nc1ccc(NC(=O)OCc2ccccc2)c(O)c1 | 205
94 | O=C(Cc1c(-c2ccccc2)c2cc3c(cc2oc1=O)C(O)CC3)Nc1ccc(F)cc1C(F)(F)F (centres undefined) | 217 to 218
95 | CCCc1nc2c(C)cnc(C(=O)O)c2n1Cc1ccc(-c2ccccc2-c2nnn[nH]2)cc1 | 161 to 163
96 | Cc1cc(C)c(C(CO)c2ccc(C(C)C)cc2)c(O)c1 (centres undefined) | 101 to 102
97 | CN(C)C1(Cc2ccccc2)CCC(c2[nH]c3ccccc3c2CC2CCCCC2)CC1 (centres undefined) | 120 to 126
98 | Nc1cc(Oc2ccccc2)ccc1[N+](=O)[O-] | 72
99 | NC(=O)NCc1ccc(CNC(=O)[C@@H](CCCNC(N)=N[N+](=O)[O-])NC(=O)Nc2cccc3ccccc23)cc1 | 210
